Experimental data: patent US20040220268A1, “Compound that directly stimulates phospholipase C activity” (priority 2003, published 2004)

Columns and labels:
U937 cells = assay: Formation of inositol phosphates in cells (in vivo PLC activity); assay type: cell-based, human
Method: U937 Cells were labeled with myo-[^3H] inositol (1 μCi/10^6 cells) for 24 h at 37° C. and then treated with various concentrations of m-3M3FBS or o-3M3FBS. Total inositol phosphates were eluted with a solution containing 1 M ammonium formate and 0.1 M formic acid. Radioactivity of the [3H] inositol phosphates was determined by counting in a scintillation counter. Data are presented as means ±S. E. M. of five independent experiments.
Cells grown in culture were harvested by centrifugation, washed with inositol-free RPMI 1640 medium, and resuspended at a density of 2×10^6 cells/ml in the same medium. The cells were then labeled with myo-[^3H] inositol (1 μCi/10^6 cells) for 24 h at 37° C. and rinsed twice with inositol-free RPMI 1640 medium containing 0.5% fetal bovine serum, 20 mM of Hepes at pH 7.2, 20 mM of LiCl, and bovine serum albumin (1 mg/ml) and then resuspended at a density of 2×10^7 cells/ml. A portion (0.1 ml) of the cell suspension was transferred to a microcentrifuge tube and incubated at 37° C. for 15 min. PIP2 hydrolysis was initiated by adding chemicals or solvents for the indicated times. Reactions were terminated by adding 200 μl of ice-cold 10% perchloric acid (HClO4). […] The radioactivity of the [3H] inositol phosphates was determined using a scintillation counter (Tri-Packard, Meriden, Conn.).

PLC β3 = target: T1, PLC β3 (Homo sapiens, UniProt Q01970); assay: Phosphoinositide hydrolysis in vitro; assay type: biochemical; settings: 25 μM; purified isozyme
T1 sequence (Q01970 1-1234): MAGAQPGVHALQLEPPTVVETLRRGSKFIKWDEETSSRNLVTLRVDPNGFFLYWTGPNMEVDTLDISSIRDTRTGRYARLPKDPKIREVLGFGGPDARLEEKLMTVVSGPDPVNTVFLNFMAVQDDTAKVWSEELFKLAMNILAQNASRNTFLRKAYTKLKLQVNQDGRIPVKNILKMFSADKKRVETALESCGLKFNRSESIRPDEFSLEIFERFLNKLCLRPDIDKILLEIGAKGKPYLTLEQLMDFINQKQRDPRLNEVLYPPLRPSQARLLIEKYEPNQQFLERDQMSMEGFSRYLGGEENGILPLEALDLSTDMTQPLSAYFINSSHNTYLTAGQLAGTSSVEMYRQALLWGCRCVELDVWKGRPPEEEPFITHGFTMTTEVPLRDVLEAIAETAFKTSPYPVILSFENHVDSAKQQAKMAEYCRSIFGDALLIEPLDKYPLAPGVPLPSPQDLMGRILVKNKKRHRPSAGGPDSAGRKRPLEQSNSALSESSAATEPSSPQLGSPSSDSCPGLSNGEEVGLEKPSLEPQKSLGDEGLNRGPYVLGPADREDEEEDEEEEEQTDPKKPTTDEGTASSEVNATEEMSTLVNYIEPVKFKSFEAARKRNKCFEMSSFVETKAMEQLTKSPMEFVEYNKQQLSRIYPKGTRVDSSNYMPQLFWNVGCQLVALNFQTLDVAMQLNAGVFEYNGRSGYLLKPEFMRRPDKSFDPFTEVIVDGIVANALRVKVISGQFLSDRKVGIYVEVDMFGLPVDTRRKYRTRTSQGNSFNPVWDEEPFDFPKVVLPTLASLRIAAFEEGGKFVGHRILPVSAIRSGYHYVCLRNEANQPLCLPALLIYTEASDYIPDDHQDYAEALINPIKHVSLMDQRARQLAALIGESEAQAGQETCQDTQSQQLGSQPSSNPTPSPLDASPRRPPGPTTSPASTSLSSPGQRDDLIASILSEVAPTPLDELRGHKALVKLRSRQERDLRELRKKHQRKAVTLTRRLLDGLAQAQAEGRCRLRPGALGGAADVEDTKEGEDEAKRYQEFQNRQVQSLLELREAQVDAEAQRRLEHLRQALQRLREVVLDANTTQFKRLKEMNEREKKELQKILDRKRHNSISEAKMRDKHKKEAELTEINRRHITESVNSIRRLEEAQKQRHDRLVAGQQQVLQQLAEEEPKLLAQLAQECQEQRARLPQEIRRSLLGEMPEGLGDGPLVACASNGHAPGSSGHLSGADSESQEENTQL
Method: The hydrolyzing activity of PtdIns-4,5-P2 was measured on mixed phospholipid vesicles containing 120 μM phosphatidylethanolamine, 30 μM PtdIns-4,5-P2, and 1 μCi/ml [3H] PtdIns-4,5-P2. Purified PLC β2, substrates, and the chemicals (2.5, 5, 10, 20, and 25 μM of m-3M3FBS or of o-3M3FBS) were coincubated (A), 25 μM of m-3M3FBS or o-3M3FBS, and phospholipid substrates were mixed with purified PLC β3, γ1, 2, or δ1 (B). Reactions were performed for 10 min at 37° C. in a 200 μl reaction mixture containing lipid micelles (5 μM [^3H] PtdIns-4,5-P2, 20,000 cpm). Reactions were stopped by adding 1 ml of CHCl3:CH3OH:HCl (50:50:0.3, v/v/v). Inositol trisphosphates were extracted with 0.5 ml of 1 M HCl/5 mM EGTA, and the radioactivity in the upper aqueous phase was measured. Data are presented as means ±S. E. M. of three independent experiments (A, B).
PLC activity was assayed using [^3H] PtdIns-4,5-P2 as a substrate (Min et al., 1993). PtdIns-4,5-P2-hydrolyzing activity was measured with mixed phospholipid micelles containing 120 μM phosphatidylethanolamine, 30 μM PtdIns-4,5-P2, and 1 μCi/ml [^3H] PtdIns-4,5-P2. The lipids, in chloroform, were dried under a stream of nitrogen gas, suspended in assay buffer (20 mM HEPES pH 7.0, 120 mM NaCl, 2 mM MgCl2, 40 or 100 μM CaCl2, and 1 mg/ml bovine albumin serum (Bayer, Leverkusen, Germany)), and sonicated. All proteins added to the reaction mixture were dialyzed overnight against the assay buffer. Incubation was performed for 10 min at 37° C. in a 200 μl reaction mixture containing lipid micelles (5 μM [3H] PtdIns-4,5-P2, 20,000 cpm). The reaction was stopped by adding 2 ml of CHCl3: CH3OH: HCl (50: 50: 0.3, v/v/v). The inositol triphosphates were extracted with 0.5 ml of 1 N HCl, and radioactivities in the upper aqueous phase were measured.

Structure (SMILES) | fold increase of accumulation of inositol phosphates (U937 cells; 50 μM) [fold] | activity of PLC beta3 (PLC β3) | effect on PLC activity (inositol phosphate formation) (U937 cells)
Cc1cc(C)c(S(=O)(=O)Nc2cccc(C(F)(F)F)c2)c(C)c1 [m-3M3FBS, 2,4,6-Trimethyl-N-(meta 3-trifluoromethyl-phenyl)-benzenesulfonamide] | 2.5 | augmented the activity | –
Cc1cc(C)c(S(=O)(=O)Nc2ccccc2C(F)(F)F)c(C)c1 [o-3M3FBS, 2,4,6-Trimethyl-N-(ortho 3-trifluoromethyl-phenyl)-benzenesulfonamide, reference compound] | – | did not affect | no effect
